Measurements as given in ChEMBL document CHEMBL1142311, “Discovery and SAR of 1,3,4-thiadiazole derivatives as potent Abl tyrosine kinase inhibitors and cytodifferentiating agents” (Bioorg Med Chem Lett, 2008).
The source made the active and inactive calls. No cut-off for these calls is given here.

Key:
[1] = target: Proto-oncogene tyrosine-protein kinase Src (Homo sapiens) (UniProt P12931); assay: Inhibition of recombinant human c-Src
Mus musculus [2] = organism: Mus musculus; assay: Inhibition of p210Bcr-Abl phosphorylation in gleevec-resistant mouse 32D cells at 10 uM
[3] = Reduction of clonogenic activity in Bcr-Abl expressing mouse 32D clone cells; conditions: read-out: LD50
HL-60 [4] = assay: Effect on PMA-stimulated human HL60 cells assessed as recovery of ROS metabolism; assay type: functional, cell-based
Mus musculus [5] = organism: Mus musculus; assay: Inhibition of p210Bcr-Abl phosphorylation in gleevec-sensitive mouse 32D cells at 10 uM
HL-60 [6] = assay: Effect on zymosan-stimulated human HL60 cells assessed as recovery of ROS metabolism; assay type: functional, cell-based
HL-60 [7] = assay: Growth inhibition of human HL60 cells upto 100 uM after 96 hrs; assay type: functional, cell-based
HL-60 [8] = assay: Growth inhibition of human HL60 cells after 96 hrs; assay type: functional, cell-based

Chain of Proto-oncogene tyrosine-protein kinase Src (Homo sapiens) (P12931 2-536 limits assumed): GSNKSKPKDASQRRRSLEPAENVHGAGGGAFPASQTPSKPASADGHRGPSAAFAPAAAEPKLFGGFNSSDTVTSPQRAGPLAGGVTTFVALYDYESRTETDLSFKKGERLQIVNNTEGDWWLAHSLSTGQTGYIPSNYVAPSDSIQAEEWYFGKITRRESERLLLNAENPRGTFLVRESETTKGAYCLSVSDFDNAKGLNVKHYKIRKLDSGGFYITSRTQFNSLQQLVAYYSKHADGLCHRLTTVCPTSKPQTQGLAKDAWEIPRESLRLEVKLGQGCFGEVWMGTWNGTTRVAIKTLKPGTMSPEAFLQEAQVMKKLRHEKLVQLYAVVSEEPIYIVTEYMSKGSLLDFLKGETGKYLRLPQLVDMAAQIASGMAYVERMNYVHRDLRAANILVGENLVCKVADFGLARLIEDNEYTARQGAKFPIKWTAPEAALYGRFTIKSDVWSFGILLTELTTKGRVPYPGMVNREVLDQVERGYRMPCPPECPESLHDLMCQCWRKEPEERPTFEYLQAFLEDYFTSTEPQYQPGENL

Row | Activity [1] | Structure (SMILES) | Activity (Mus musculus [2]) | CC50 [3] | Activity (HL-60 [4]) | Activity (Mus musculus [5]) | Activity (HL-60 [6]) | Activity (HL-60 [7]) | Activity (HL-60 [8])
1 | inactive | O=C(Nc1nnc(CCc2ccccc2)s1)c1ccc(I)cc1 | – | – | – | – | – | – | –
2 | – | O=C(Nc1nnc(SCc2ccc(F)cc2)s1)c1ccc(F)cc1 | Active | 2200 nM | Active | Active | Active | inactive | Active
